In US20250295683A1, “HETEROCYCLIC COMPOUND, PREPARATION METHOD THEREFOR AND APPLICATION THEREOF” (SICHUAN KELUN-BIOTECH BIOPHARMACEUTICAL CO., LTD., priority 2022, published 2025):

What was measured:
[1] = biological target: T1, Plasminogen (Glu-Typ) (Homo sapiens, UniProt P00747); assay: Activation effect of the compounds on plasminogen (Glu-Typ), u-PA / VLK-pNA kinetic assay; assay type: biochemical; conditions: for Activation multiples (5 min): slope of A405 vs t^2 divided by slope of control group; for Activation potency on plasminogen compared with the positive compound: at the same concentration
T1 construct: Plasminogen (Glu-Typ) (sigma); purchased sigma (plasminogen); Aladdin (u-PA)
T1 sequence (P00747 20-810 limits assumed): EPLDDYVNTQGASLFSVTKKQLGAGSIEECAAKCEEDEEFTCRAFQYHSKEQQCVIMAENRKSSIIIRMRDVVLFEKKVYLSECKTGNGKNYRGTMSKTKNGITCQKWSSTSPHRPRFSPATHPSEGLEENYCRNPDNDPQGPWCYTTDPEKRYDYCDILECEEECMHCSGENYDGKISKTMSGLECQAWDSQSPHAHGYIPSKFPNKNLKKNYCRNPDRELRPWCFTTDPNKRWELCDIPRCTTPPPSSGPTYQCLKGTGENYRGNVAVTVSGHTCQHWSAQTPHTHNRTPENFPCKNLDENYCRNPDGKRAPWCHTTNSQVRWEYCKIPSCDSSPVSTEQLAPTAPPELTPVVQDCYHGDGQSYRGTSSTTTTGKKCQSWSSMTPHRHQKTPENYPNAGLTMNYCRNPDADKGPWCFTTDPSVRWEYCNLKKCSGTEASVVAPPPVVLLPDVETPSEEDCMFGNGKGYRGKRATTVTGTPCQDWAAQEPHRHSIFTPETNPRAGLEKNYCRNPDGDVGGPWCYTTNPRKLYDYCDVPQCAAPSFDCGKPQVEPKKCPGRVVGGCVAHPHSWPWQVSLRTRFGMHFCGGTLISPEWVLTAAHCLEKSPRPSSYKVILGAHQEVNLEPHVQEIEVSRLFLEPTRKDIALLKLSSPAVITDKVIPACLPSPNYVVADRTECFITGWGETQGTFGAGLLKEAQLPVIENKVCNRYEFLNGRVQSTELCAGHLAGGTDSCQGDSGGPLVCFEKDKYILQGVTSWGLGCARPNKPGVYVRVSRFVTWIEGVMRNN
Description: (1) Formulation of Compounds The test compounds of the present invention and the positive compound are all set at three concentration points, i.e., 200 μM, 150 μM and 100 μM, respectively; the final concentration in DMSO was 2.5%.
Plasminogen (Glu-Typ) (sigma); urokinase-type plasminogen activator (u-PA) (Aladdin); vLK-pNA (absin); Multifunctional microplate reader (Thermo).
Plasminogen, the urokinase-type Plasminogen activator (u-PA) and VLK-pNA were formulated in a buffer [Tris-HCl (50 mM, pH 7.4)+NaCl (100 mM)+Tween-80 (0.01%)] to obtain mother solutions at concentrations of 100 nM (5×), 100 IU/ml (5×), and 5 mM (5×), respectively. 20 μl of 5× Plasminogen (Glu-Typ), 20 μl of 5× urokinase-type Plasminogen activator (u-PA) and 20 μl of 5×VLK-pNA were added to a 96-well plate. After mixing uniformly, 40 μl of the test compounds or positive compound were added to the 96-well plate, and a control group (no compound) was set up. The mixture was uniformly mixed well. The kinetic detection was performed using a Thermo multifunctional microplate reader, the detection wavelength was 405 nm, and the activation factor was calculated.
The following results were obtained by plotting the absorbance value at 405 nm (A405) versus time squared (t^2), using the slope of the curve for analysis, and calculating the activation multiples by dividing the slope of the compound group by the slope of the control group (see Table 1-1 and Table 1-2).

[2] = tested on: whole blood of rat; assay: Fibrinolysis effect shown by thromboelastography (TEG) with u-PA; conditions: for Ma (strength of the blood clot formed): rat whole blood; for Thrombolytic activity compared with the positive compound: according to the Ma values and thromboelastograms
Description: Main Instruments and Reagents: thromboelastography TEG (Udibio); urokinase-type plasminogen activator (u-PA) (Aladdin); reagent 1 (the main component is kaolin); reagent 2 (main component is calcium chloride).
• (1) Test group setting: uPA group: urokinase-type plasminogen activator (u-PA) (1000 U/ml); positive compound/compound 2-1/compound 2-2 group: test compound (200 μM)+u-PA (1000 U/ml); blank group: vehicle. • (2) Formulation of compound solution: the compound was formulated using a 0.5 mg/ml trometamol solution to obtain a 4 mM mother solution, adjusted to pH 9, and diluted to a 2 mM 10× mother solution. The final test concentration was 200 μM. u-PA was formulated as a 50,000 U/ml mother solution using normal saline, and diluted to a 10,000 U/ml 10× mother solution. The final test concentration was 1000 U/ml. • (3) Test: 100 μL of u-PA was added to a sample cup (containing reagent 1) containing 800 μL of the whole blood of rat (anticoagulated with sodium citrate), 100 μL of the test compound was added, and the cup was inverted to mix well. 340 μL of the sample from the sample cup was added to the reaction cup containing 20 μL of reagent 2, and the instrument was allowed to run. The results are shown in Table 2-1, Table 2-2, Table 2-3, FIG. 1, FIG. 2 and FIG. 3. The compound concentration as shown in Table 2-1, Table 2-2, FIG. 1 and FIG. 2 was 200 μM; and the compound concentration as shown in Table 2-3 and FIG. 3 was 100 μM.

[3] = in vivo; cited from earlier work
[4] = stroke resulting from acute occlusion of large vessels; cited from earlier work
[5] = Table 2-1, compound 200 μM + u-PA 1000 U/ml
[6] = Table 2-2, compound 200 μM + u-PA 1000 U/ml
[7] = Table 2-3, compound 100 μM + u-PA 1000 U/ml

Row | Activation multiples (5 min) ([1]; Table 1-1, compound 100 μM) | Activation multiples (5 min) ([1]; Table 1-1, compound 150 μM) | Activation multiples (5 min) ([1]; Table 1-1, compound 200 μM) | Activation multiples (5 min) ([1]; Table 1-2, compound 100 μM) | Activation multiples (5 min) ([1]; Table 1-2, compound 150 μM) | Activation multiples (5 min) ([1]; Table 1-2, compound 200 μM) | Molecule | Ma (strength of the blood clot formed) [2, 5] | Ma (strength of the blood clot formed) [2, 6] | Ma (strength of the blood clot formed) [2, 7] | Activation potency on plasminogen compared with the positive compound [1] | Thrombolytic activity compared with the positive compound [2] | half-life [3] | recanalization rate after intravenous thrombolysis [4]
1 | 1.71 | 2.62 | 8.62 | 3.02 | 4.54 | 12.49 | CC(C)=CCC/C(C)=C/CC[C@@]1(C)Oc2c(c(O)cc3c2CN(CCC[C@@H](C(=O)O)N2Cc4c(cc(O)c5c4O[C@](C)(CC/C=C(\C)CCC=C(C)C)[C@@H](O)C5)C2=O)C3=O)C[C@@H]1O [Positive compound, reference compound] | 72.9 mm | 73.1 mm | 76.4 mm |  |  |  | 
2 |  |  |  | 4.65 | 52.96 | 90.00 | CC(C)=CCC/C(C)=C/CC[C@@]1(C)Oc2c(c(OC(=O)N3CCS(=O)(=O)CC3)cc3c2CN(CCC[C@@H](C(=O)O)N2Cc4c(cc(OC(=O)N5CCS(=O)(=O)CC5)c5c4O[C@](C)(CC/C=C(\C)CCC=C(C)C)[C@@H](O)C5)C2=O)C3=O)C[C@@H]1O [Compound 2-5, (S)-2,5-bis((2R,3S)-2-((E)-4,8-dimethylnona-3,7-dien-1-yl)-5-((1,1-dioxothiomorpholino-4-carbonyl)oxy)-3-hydroxy-2-methyl-7-oxo-3,4,7,9-tetrahydropyrano[2,3-E]isoindol-8(2H)-yl)pentanoic acid] |  | 1.9 mm |  | better activation potency on plasminogen than the positive compounds | superior thrombolytic activity to the positive compound |  | 
3 |  |  |  |  |  |  | CC(C)=CCC/C(C)=C/CC[C@@]1(C)Oc2c(c(OC(=O)N3CC[S+]([O-])CC3)cc3c2CN(CCC[C@@H](C(=O)O)N2Cc4c(cc(OC(=O)N5CC[S+]([O-])CC5)c5c4O[C@](C)(CC/C=C(\C)CCC=C(C)C)[C@@H](O)C5)C2=O)C3=O)C[C@@H]1O [Compound 2-6, (S)-2,5-bis((2R,3S)-2-((E)-4,8-dimethylnona-3,7-dien-1-yl)-5-((1-oxothiomorpholino-4-carbonyl)oxy)-3-hydroxy-2-methyl-7-oxo-3,4,7,9-tetrahydropyrano[2,3-E]isoindol-8(2H)-yl)pentanoic acid] |  |  | 8.8 mm |  | superior thrombolytic activity to the positive compound |  | 
4 |  |  |  |  |  |  | rt-PA: Recombinant tissue plasminogen activator |  |  |  |  |  | 3 to 5 min | ≤ 25%
5 | 6.66 | 21.12 | 42.23 |  |  |  | CC(C)=CCC/C(C)=C/CC[C@@]1(C)Oc2c(c(OC(=O)N3CCOCC3)cc3c2CN(CCC[C@@H](C(=O)O)N2Cc4c(cc(OC(=O)N5CCOCC5)c5c4O[C@](C)(CC/C=C(\C)CCC=C(C)C)[C@@H](O)C5)C2=O)C3=O)C[C@@H]1O [Compound 2-2, (S)-2,5-bis((2R,3S)-2-((E)-4,8-dimethylnona-3,7-dien-1-yl)-3-hydroxy-2-methyl-5-((morpholino-4-carbonyl)oxy)-7-oxo-3,4,7,9-tetrahydropyrano[2,3-e]isoindol-8(2H)-yl)pentanoi c acid] | 4.7 mm |  |  | better activation potency on plasminogen than the positive compounds | superior thrombolytic activity to the positive compound |  | 

Row | Molecule | Activation multiples (5 min) ([1]; Table 1-1, compound 100 μM) | Activation multiples (5 min) ([1]; Table 1-1, compound 150 μM) | Activation multiples (5 min) ([1]; Table 1-1, compound 200 μM) | Activation multiples (5 min) ([1]; Table 1-2, compound 100 μM) | Activation multiples (5 min) ([1]; Table 1-2, compound 150 μM) | Activation multiples (5 min) ([1]; Table 1-2, compound 200 μM) | Ma (strength of the blood clot formed) [2, 5] | Ma (strength of the blood clot formed) [2, 6] | Ma (strength of the blood clot formed) [2, 7] | Activation potency on plasminogen compared with the positive compound [1] | Thrombolytic activity compared with the positive compound [2] | half-life [3] | recanalization rate after intravenous thrombolysis [4]
6 | CC(C)=CCC/C(C)=C/CC[C@@]1(C)Oc2c(c(OC(=O)N(C)C)cc3c2CN(CCC[C@@H](C(=O)O)N2Cc4c(cc(OC(=O)N(C)C)c5c4O[C@](C)(CC/C=C(\C)CCC=C(C)C)[C@@H](O)C5)C2=O)C3=O)C[C@@H]1O [Compound 2-1, (S)-2,5-bis((2R,3S)-5-((dimethylcarbamoyl)oxy)-2-((E)-4,8-dimethylnona-3,7-dien-1-yl)-3-hydroxy-2-methyl-7-oxo-3,4,7,9-tetrahydropyrano[2,3-E]isoindol-8(2H)-yl)pentanoic acid] | 5.22 | 15.93 | 42.97 |  |  |  | 4.7 mm |  |  | better activation potency on plasminogen than the positive compounds | superior thrombolytic activity to the positive compound |  | 
